# Laboratory results taken from patent US11712466B2, “Vaccine composition” (TOHOKU UNIVERSITY, priority 2017, dated 2023).
# Ends that are not written are not given here.
# What was measured:
# [1] = test system: antigen peptide (peptide-conjugated BSA); experiment: Antibody titer in blood of immunized mice by ELISA against antigen peptide; assay type: in vivo, mouse; conditions: Example 1: C57BL/6J mice, KLH-antigen complex s.c., Freund's adjuvant, serum 2 weeks after booster (total 4 weeks)
# From the text: (§1) C57BL/6J male mice aged 8 weeks were purchased from Charles River Laboratories Japan, Inc. After the delivery, the mice were reared in an environment where the room temperature and the light and dark cycles were maintained, and were provided with feed and water ad libitum. As a candidate sequence leading to activation of helper T cells by MHC class II, two peptide sequences: MTGSAADTHR (SEQ ID NO: 4; hereinafter, a peptide composed of the amino acid sequence is referred to as “MTG peptide”) and RRRQASPPRR (SEQ ID NO: 5; hereinafter, a peptide composed of the amino acid sequence is referred to as “RRR peptide”), each of which is not common to VASH1 in the VASH2 sequence were selected (FIG. 1). With respect to these peptides, peptide vaccines using KLH as a carrier were constructed. Note that for the conjugation of each peptide with KLH, a glutaraldehyde method was used. When the amount of the peptide introduced into KLH was measured for each of the obtained peptide vaccines, the amount of MTG was 66 to 70 nmol/mg of the conjugate, and the amount of RRR was 62 to 76 nmol/mg of the conjugate. Subsequently, 5 μg of KLH (control) and 20 μg of each of the KLH-antigen complexes were prepared with physiological saline so that the total amount was 50 μL, respectively, whereby KLH-mixed solutions were obtained. To each of the KLH-mixed solutions (50 μL), an equal amount of complete Freund's adjuvant was added. The obtained mixture was subcutaneously administered to the mice, whereby initial immunization was carried out. After 2 weeks from the administration, booster immunization was carried out by subcutaneously administering a mixture of each of the KLH-mixed solutions (50 μL) and an equal amount of incomplete Freund's adjuvant to the mice. Further, after 2 weeks from the booster immunization (after a total of 4 weeks), an increase in the antibody titer in the blood of each of the immunized mice was verified by ELISA.
# The measurement of the antibody titer by ELISA was carried out as follows. After 2 weeks from the booster immunization (after a total of 4 weeks), the blood was collected from the facial vein of each of the immunized mice, and the serum separated from the blood was subjected to ELISA. By using 50 mM carbonate buffer, peptide-conjugated BSA was prepared at 10 μg/mL, and further a recombinant VASH2 protein was prepared at 1 μg/mL, each of which was added at 50 μL/well, and the resultant was left to stand overnight at 4° C. After the solution in each well was removed, 5% skim milk was added at 150 μL/well. […] After 30 minutes, the reaction was stopped by adding 0.5 N H2SO4 at 50 μL/well, and an absorbance (450 nm) was measured using a microplate reader.
# [2] = test system: mouse melanoma cells (B16F1); experiment: Subcutaneous implant model, tumor growth inhibitory effect (B16F1); assay type: in vivo; conditions: immunized C57BL/6J mice, cells implanted s.c. on day 29, measured 14 days after implantation
# Procedure: (§2) After 2 weeks from the administration of each peptide vaccine and incomplete Freund's adjuvant in Example 1 (on day 29 after the initial peptide vaccine administration), mouse-derived tumor cells were implanted in an immunized mouse, whereby a subcutaneous implant model was prepared. Specifically, mouse lung cancer cells (Lewis lung cancer cells (LLC)) or mouse melanoma cells (B16F1) (all have C57BL/6J as a genetic background) cultured in a RPMI+10% FBS medium were collected by centrifugation, and a cell suspension (1.0×10^8 cells/mL) was prepared with a serum-free medium, and 0.1 mL (1.0×10^7 cells/animal) of the cell suspension was implanted in a right axillary subcutaneous region of a mouse using a 27G injection needle and a syringe, whereby a subcutaneous implant model of tumor cells was prepared.
# [3] = test system: recombinant human VASH2 protein; experiment: Antibody titer in blood of immunized mice by ELISA against recombinant VASH2 protein; assay type: in vivo, mouse; conditions: Example 1: C57BL/6J mice, KLH-antigen complex s.c., Freund's adjuvant, serum 2 weeks after booster (total 4 weeks)
# From the text: as §1
# The measurement of the antibody titer by ELISA was carried out as follows. After 2 weeks from the booster immunization (after a total of 4 weeks), the blood was collected from the facial vein of each of the immunized mice, and the serum separated from the blood was subjected to ELISA. By using 50 mM carbonate buffer, peptide-conjugated BSA was prepared at 10 μg/mL, and further a recombinant VASH2 protein was prepared at 1 μg/mL, each of which was added at 50 μL/well, and the resultant was left to stand overnight at 4° C. After the solution in each well was removed, 5% skim milk was added at 150 μL/well. After the resultant was left to stand at room temperature for 2 hours, the solution was removed, and subsequently, a serum sample diluted by 20 to 62500 times with 5% skim milk was added at 50 μL/well, and the resultant was left to stand overnight at 4° C. Subsequently, washing was carried out with PBS (200 μL/well×6 times), and thereafter, a secondary antibody (HRP-conjugated anti-Mouse IgG) diluted by 1000 times with 5% skim milk was added at 50 μL/well. After the resultant was left to stand at room temperature for 3 hours, washing was carried out with PBS (200 μL/well×3 times). Thereafter, tetramethylbenzidine (TMB) was added at 50 μL/well, and the resultant was left to stand at room temperature under light shielding. After 30 minutes, the reaction was stopped by adding 0.5 N H2SO4 at 50 μL/well, and an absorbance (450 nm) was measured using a microplate reader.
# [4] = test system: Lewis lung cancer cells (LLC); experiment: Subcutaneous implant model, tumor growth inhibitory effect (LLC); assay type: in vivo, mouse; conditions: immunized C57BL/6J mice, cells implanted s.c. on day 29, measured 14 days after implantation
# Procedure: as §2
substance,measurement,setting,value
RRR peptide vaccine: RRR peptide RRRQASPPRR (SEQ ID NO: 5) conjugated with KLH as carrier by a glutaraldehyde method (also: conjugated with KLH by glutaraldehyde),antibody titer against the antigen peptide,[1],significant concentration-dependent increase
same,"tumor size (tumorigenesis), B16F1 melanoma cells",[2],could not inhibit tumorigenesis
same,antibody titer against the recombinant human VASH2 protein,[3],a significant increase in the antibody titer was not confirmed
same,"tumor size (tumorigenesis), Lewis lung cancer cells",[4],could not inhibit tumorigenesis
